Results: patent US20070232601A1, “Vla-4 Inhibitor” (priority 2004, published 2007)
Marks after values point to notes of the source that are not given here.

Assays:
[1] = biological target: T1, hα4 and β1 integrins (VLA-4) (Homo sapiens, UniProt P05556+P13612); experiment: In vitro evaluation: inhibition of binding of CHO cells expressing hα4 and β1 integrins to Eu3+-hVCAM-1 D1D7-IgG; settings: ligand Eu3+-hVCAM-1 D1D7-IgG 2 nM, Ki calculated from IC50
T1 construct: expressed in transfected cells; host or cells: CHO cells
T1 sequence (P13612 34-1032): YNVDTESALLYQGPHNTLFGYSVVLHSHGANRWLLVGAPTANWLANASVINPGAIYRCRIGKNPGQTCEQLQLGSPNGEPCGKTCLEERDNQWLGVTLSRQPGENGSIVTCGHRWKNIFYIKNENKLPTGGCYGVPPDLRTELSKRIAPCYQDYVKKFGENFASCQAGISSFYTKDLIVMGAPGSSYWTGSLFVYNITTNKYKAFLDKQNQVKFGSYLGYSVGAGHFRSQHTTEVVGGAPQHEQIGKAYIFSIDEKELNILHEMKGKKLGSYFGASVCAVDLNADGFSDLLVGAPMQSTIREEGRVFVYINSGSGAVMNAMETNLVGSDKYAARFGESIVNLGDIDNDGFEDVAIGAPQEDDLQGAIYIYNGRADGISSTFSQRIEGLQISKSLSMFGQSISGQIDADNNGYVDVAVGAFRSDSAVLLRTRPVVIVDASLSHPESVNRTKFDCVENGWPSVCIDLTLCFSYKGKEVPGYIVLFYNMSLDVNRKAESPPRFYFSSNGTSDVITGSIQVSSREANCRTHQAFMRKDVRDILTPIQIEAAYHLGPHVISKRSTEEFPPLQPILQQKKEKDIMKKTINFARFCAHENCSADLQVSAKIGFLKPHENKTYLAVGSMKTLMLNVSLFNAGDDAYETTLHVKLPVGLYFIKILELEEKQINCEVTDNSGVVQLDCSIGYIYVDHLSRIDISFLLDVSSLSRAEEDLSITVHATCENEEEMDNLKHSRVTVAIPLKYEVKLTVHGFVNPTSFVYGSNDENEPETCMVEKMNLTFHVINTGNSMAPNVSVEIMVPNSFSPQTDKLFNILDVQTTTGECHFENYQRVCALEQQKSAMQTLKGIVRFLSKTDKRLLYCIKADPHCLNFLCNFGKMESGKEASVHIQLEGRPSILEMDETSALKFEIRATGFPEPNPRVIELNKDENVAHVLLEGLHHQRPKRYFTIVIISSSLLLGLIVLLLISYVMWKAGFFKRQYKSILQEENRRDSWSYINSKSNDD
T1 sequence (P05556 21-798): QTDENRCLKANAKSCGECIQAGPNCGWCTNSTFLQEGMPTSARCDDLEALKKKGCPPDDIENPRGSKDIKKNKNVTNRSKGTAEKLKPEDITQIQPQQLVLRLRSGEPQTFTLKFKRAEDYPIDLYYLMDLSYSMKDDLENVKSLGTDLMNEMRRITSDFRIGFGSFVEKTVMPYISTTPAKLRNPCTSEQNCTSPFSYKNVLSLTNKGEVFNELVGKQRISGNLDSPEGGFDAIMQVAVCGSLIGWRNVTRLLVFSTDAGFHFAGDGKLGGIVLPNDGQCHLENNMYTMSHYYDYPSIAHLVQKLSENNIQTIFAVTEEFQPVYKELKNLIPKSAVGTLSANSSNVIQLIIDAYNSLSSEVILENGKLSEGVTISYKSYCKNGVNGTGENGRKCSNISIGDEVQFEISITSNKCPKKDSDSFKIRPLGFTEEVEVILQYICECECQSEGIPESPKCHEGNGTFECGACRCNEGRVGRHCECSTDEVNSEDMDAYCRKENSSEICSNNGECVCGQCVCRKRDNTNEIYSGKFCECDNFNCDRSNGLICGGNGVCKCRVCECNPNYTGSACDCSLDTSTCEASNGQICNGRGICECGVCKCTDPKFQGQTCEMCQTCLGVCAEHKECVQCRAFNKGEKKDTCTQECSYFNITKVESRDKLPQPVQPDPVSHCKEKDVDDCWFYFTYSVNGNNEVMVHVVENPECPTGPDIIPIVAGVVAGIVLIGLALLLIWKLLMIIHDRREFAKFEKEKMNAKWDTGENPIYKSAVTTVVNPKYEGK
Procedure, shortened: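 CHO cells stably expressing hα4β1 were cultured 2 days, then incubated 1 h at room temperature with Eu3+-hVCAM-1 D1D7-IgG (added as 2 nM solution) and compound in HEPES pH 7.5 with Ca2+, Mg2+ and 4 mM Mn2+, ± 6% human serum albumin. Bound europium was read by time-resolved fluorescence; IC50 was converted to Ki using Scatchard-derived Kd.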

[2] = Intracorporeal kinetics and oral absorbing property test (dog, oral cassette); assay type: in vivo; settings: orally administered, 0.5 mg/kg cassette; for AUC (total area under the plasma concentration versus time curve): LC/MS/MS
Method: Intracorporeal Kinetics and Oral Absorbing Property Test: A pharmacokinetic parameter when a test substance was orally administered to a dog by 0.5 mg/kg cassette was as follows.

[3] = tested on: eosinophils in BALF; experiment: Ascaris active sensitization-induced mouse eosinophil infiltration test; assay type: in vivo; settings: test substance orally administered two times per day, BALF 48 hours after inducement; for Inhibition rate: vs Ascaris-induced group
Method: Ascaris (Ascaris suum Antigen in pigs) active sensitization-induced mouse eosinophil infiltration test:
It has been reported that cell infiltration of eosinophil is induced by inducing Ascaris active sensitization {Int. Arch. Immunol., 108, 11-18, (1995)}. In this evaluation method, a test compound was evaluated. A test substance was orally administered two times per day, the total count of cells and the count of eosinophils in BALF 48 hours after inducement were calculated, and the effect was determined by comparing with a non-test substance administered group.
Results of mouse eosinophil infiltration test ^1 anti-VLA-4 antibody, two times/1 day s.c. administration; **p<0.01: vs D, cont by student's t-test

[4] = Dispersibility test in Japanese Pharmacopoeia First and Second Solution; assay type: physicochemical; settings: for Dispersibility in Japanese Pharmacopoeia First Solution: JP1, pH 1.2; for Dispersibility in Japanese Pharmacopoeia Second Solution: JP2, pH 6.8
Method: Dispersibility of a test substance in Japanese Pharmacopoeia First Solution (JP1, pH 1.2) and Japanese Pharmacopoeia Second Solution (JP2, pH 6.8) was evaluated.

Compound | Ki [1] | Cltot (apparent plasma clearance) [2] | AUC (total area under the plasma concentration versus time curve) [2] | Average total eosinophil count [3] | Inhibition rate [3] | Dispersibility in Japanese Pharmacopoeia First Solution [4] | Dispersibility in Japanese Pharmacopoeia Second Solution [4]
CCOC[C@@H]1CC[C@@H](c2ncc(CCC(=O)O)s2)N1C(=O)Cc1ccc2nc(Nc3cc(F)ccc3C)oc2c1F [Example 51, 3-[2-[(5S)-ethoxymethyl-1-[7-fluoro-2-(5-fluoro-2-methylphenyl)amino-6-benzoxazolylacetyl]-(2S)-pyrrolidinyl]-5-thiazolyl]propionic acid] | 4.6 nM | 0.26 mL/min/kg | 32310 ng·h/mL |  |  | 88 µg/mL | >800 µg/mL
CO[C@H]1C[C@@H](c2ncc(CCC(=O)O)s2)N(C(=O)Cc2cc(Cl)c(Nc3nc4ccccc4o3)cc2Cl)C1 [Example 109, 3-[2-[1-[4-(2-Benzoxazolyl)amino-2,5-dichlorophenyl)acetyl-(4S)-methoxy-(2S)-pyrrolidinyl]-5-thiazolyl]propionic acid] | 6.3 nM |  |  |  |  | 480 µg/mL | 750 µg/mL
C[C@@H]1CN([C@H]2C[C@@H](c3ncc(CCC(=O)O)s3)N(C(=O)Cc3cc(Cl)c(NC(=O)c4cn(C)c5ccccc45)cc3F)C2)C[C@H](C)O1 [Example 85, 3-[2-[1-[5-Chloro-2-fluoro-4-(1-methyl-3-indolylcarbonylamino)phenylacetyl]-(4S)-[4-(cis-2,6-dimethyl)morpholinyl]-(2S)-pyrrolidinyl]-5-thiazolyl]propionic acid] | 1 nM |  |  |  |  | 1200 µg/mL | 1300 µg/mL
O=C(O)CCc1cnc([C@@H]2C[C@H](N3CCN(CC(F)(F)F)CC3)CN2C(=O)Cc2cc(Cl)c(NC(=O)c3coc4ccccc34)cc2Cl)s1 [Example 84] | 1.5 nM |  |  |  |  | 280 µg/mL | 760 µg/mL
COC1CN([C@H]2C[C@@H](c3ncc(CCC(=O)O)s3)N(C(=O)Cc3cc(Cl)c(NC(=O)c4coc5ccccc45)cc3Cl)C2)C1 [Example 68, 3-[2-[[1-4-(3-Benzo[b]furanylcarbonylamino)-2,5-dichlorophenylacetyl]-(4S)-[1-(3-methoxy)azetidinyl]-(2S)-pyrrolidinyl]-5-thiazolyl]propionic acid] | 0.73 nM |  |  |  |  | 1000 µg/mL | 1000 µg/mL
CCOC1CN([C@H]2C[C@@H](c3ncc(CCC(=O)O)s3)N(C(=O)Cc3cc(Cl)c(NC(=O)c4csc5ccccc45)cc3F)C2)C1 [Example 71, 3-[2-[1-[4-(3-Benzo[b]thiophenylcarbonylamino)-5-chloro-2-fluorophenylacetyl]-(4S)-1-(3-ethoxy)azetidinyl-(2S)-pyrrolidinyl]-5-thiazolyl]propionic acid] | 0.5 nM |  |  |  |  | 940 µg/mL | 940 µg/mL
COC1CN([C@H]2C[C@@H](c3ncc(CCC(=O)O)s3)N(C(=O)Cc3cc(Cl)c(NC(=O)c4cn(C)c5ccccc45)cc3Cl)C2)C1 [Example 64, 3-[2-[1-[2,5-Dichloro-4-(1-methyl-3-indolylcarbonylamino)phenylacetyl]-(4S)-[1-(3-methoxy)-azetidinyl]-(2S)-pyrrolidinyl]-5-thiazolyl]propionic acid] | 3.8 nM |  |  |  |  | 1000 µg/mL | 1000 µg/mL

Further lines, with some results ahead:

Ki [1] | Cltot (apparent plasma clearance) [2] | AUC (total area under the plasma concentration versus time curve) [2] | Compound | Average total eosinophil count [3] | Inhibition rate [3] | Dispersibility in Japanese Pharmacopoeia First Solution [4] | Dispersibility in Japanese Pharmacopoeia Second Solution [4]
8.6 nM | 0.42 mL/min/kg | 19770 ng·h/mL | Cn1cc(C(=O)Nc2cc(Cl)c(CC(=O)N3[C@H](c4ncc(CCC(=O)O)s4)C[C@@H]4CCCC[C@@H]43)cc2Cl)c2ccccc21 [Example 60, 3-[2-[1-[2,5-Dichloro-4-(1-methyl-3-indolylcarbonyl)aminophenylacetyl]-(2S)-octahydroindolyl]-5-thiazolyl]propionic acid] |  |  |  | 
1.3 nM | 1.23 mL/min/kg | 7040 ng·h/mL | CO[C@H]1C[C@@H](c2ncc(CCC(=O)O)s2)N(C(=O)Cc2cc(Cl)c(NC(=O)c3cn(C)c4ccccc34)cc2Cl)C1 [Example 1, 3-[2-[1-[2,5-Dichloro-4-(1-methyl-3-indolylcarbonylamino)phenylacetyl]-(4S)-methoxy-(2S)-pyrrolidinyl]-5-thiazolyl]propionic acid] | 1.52 ×10^5 | 57** % | 33 µg/mL | >2000 µg/mL
1.7 nM | 0.57 mL/min/kg | 14935 ng·h/mL | CC(C)O[C@H]1C[C@@H](c2ncc(CCC(=O)O)s2)N(C(=O)Cc2cc(Cl)c(NC(=O)c3csc4ccccc34)cc2F)C1 [Example 36, 3-[2-[1-[4-[(3-Benzo[b]thienylycarbonyl)amino]-5-chloro-2-fluorophenylacetyl]-4S-isopropoxy-(2S)-pyrrolidinyl]-5-thiazolyl]propionic acid] |  |  |  | 
0.72 nM | 0.82 mL/min/kg | 10240 ng·h/mL | CO[C@H]1C[C@@H](c2ncc(CCC(=O)O)s2)N(C(=O)Cc2cc(Cl)c(NC(=O)c3csc4ccccc34)cc2F)C1 [Example 4, 3-[2-[1-[4-[(3-Benzo[b]thienylcarbonyl)amino]-5-chloro-2-fluorophenylacetyl]-(4S)-methoxy-(2S)-pyrrolidinyl]-5-thiazolyl]propionic acid] |  |  |  | 
0.85 nM | 0.81 mL/min/kg | 10690 ng·h/mL | CO[C@H]1C[C@@H](c2ncc(CCC(=O)O)s2)N(C(=O)Cc2cc(Cl)c(NC(=O)c3cn(C)c4ccccc34)cc2F)C1 [Example 2, 3-[2-[1-[5-Chloro-2-fluoro-4-(1-methyl-3-indolylcarbonyl)aminophenylacetyl]-(4S)-methoxy-(2S)-pyrrolidinyl]-5-thiazolyl]propionic acid] |  |  | 97 µg/mL | >2000 µg/mL
6.7 nM | 0.59 mL/min/kg | 14860 ng·h/mL | COC[C@@H]1CC[C@@H](c2ncc(CCC(=O)O)s2)N1C(=O)Cc1ccc2nc(Nc3cc(F)ccc3C)oc2c1 [Example 58] |  |  |  | 
1.6 nM |  |  | Cn1cc(C(=O)Nc2cc(Cl)c(CC(=O)N3C[C@@H](N4CCCCC4)C[C@H]3c3ncc(CCC(=O)O)s3)cc2Cl)c2ccccc21 [Example 46, 3-[2-[1-[2,5-Dichloro-4-(1-methyl-3-indolylcarbonylamino)phenylacetyl]-(4S=)=1-piperidinyl-(2S)-pyrrolidinyl]-5-thiazolyl]propionic acid] | 1.44 ×10^5 | 53** % | >2000 µg/mL | 570 µg/mL
4.4 nM | 0.31 mL/min/kg | 27620 ng·h/mL | COC[C@@H]1CC[C@@H](c2ncc(CCC(=O)O)s2)N1C(=O)Cc1ccc2nc(Nc3cc(F)ccc3C)oc2c1F [Example 57, 3-[2-[1-[7-Fluoro-2-(5-fluoro-2-methylphenyl)-amino-6-benzoxazolylacetyl]-(5S)-methoxymethyl-(2S)-pyrrolidinyl]-5-thiazolyl]propionic acid] |  |  |  | 
